Counter-ions that a name gives are not always drawn.
Each compound was assayed on HCV RNA replication (replicon cell lines Huh-7, 5.2 and ET) (assay: Cell-Based Luciferase Reporter HCV RNA Replication Assay). Conditions: Hepatitis C virus, Huh-7, 96 h, Huh-7, 5.2 or ET replicon cells, luciferase counts after 4 days incubation; read-out: IC50.
`CC1CCC(C(=O)N(c2cc(C3=CCCCC3)sc2C(=O)O)C2CCN3C(=O)CCC3C2)CC1` (stereo not drawn) [Compound 87, RS-5-cyclohex-1-enyl-3-[(4-trans-methyl-cyclohexanecarbonyl)-(3-oxo-octahydro-indolizin-7-yl)-amino]-thiophene-2-carboxylic acid] showed an IC50 of under 5 µM. `CC1(C)CC=C(c2cc(N(C(=O)[C@H]3CC[C@H](C)CC3)[C@H]3CC[C@@H](n4cncn4)CC3)c(C(=O)O)s2)CC1` [Compound 94, 5-(4,4-dimethyl-cyclohex-1-enyl)-3-[(trans-4-methyl-cyclohexanecarbonyl)-(cis-4-[1,2,4]triazol-1-yl-cyclohexyl)-amino]-thiophene-2-carboxylic acid; hydrochloride] showed an IC50 of under 5 µM. Work on `CC1(C)CC=C(c2cc(N(C(=O)[C@H]3CC[C@H](C)CC3)[C@H]3CC[C@H](n4cncn4)CC3)c(C(=O)O)s2)CC1` [Compound 95, 5-(4,4-dimethyl-cyclohex-1-enyl)-3-[(trans-4-methyl-cyclohexanecarbonyl)-(trans-4-[1,2,4]triazol-1-yl-cyclohexyl)-amino]-thiophene-2-carboxylic acid; hydrochloride] yielded an IC50 of under 5 µM. In the case of `C[C@H]1CC[C@H](C(=O)N(c2cc(C3=CCCCC3)sc2C(=O)O)C2CCN(c3cncnc3)CC2)CC1` [Compound 96, 5-cyclohex-1-enyl-3-[(trans-4-methyl-cyclohexanecarbonyl)-(1-pyrimidin-5-yl-piperidin-4-yl)-amino]-thiophene-2-carboxylic acid], the IC50 is reported as under 5 µM. Compound `CC1(C)CCC(c2cc(N(C(=O)[C@H]3CC[C@H](C)CC3)C3COCOC3)c(C(=O)O)s2)CC1` [Compound 97, 5-(4,4-Dimethyl-cyclohexyl)-3-[[1,3]dioxan-5-yl-(trans-4-methyl-cyclohexanecarbonyl)-amino]-thiophene-2-carboxylic acid] has an IC50 of under 5 µM. For `C[C@H]1CC[C@H](C(=O)N(c2cc(C3=CCCCC3)sc2C(=O)O)C2CCN(C=O)CC2)CC1` [Compound 98, 5-cyclohex-1-enyl-3-[(1-formyl-piperidin-4-yl)-(trans-4-methyl-cyclohexanecarbonyl)-amino]-thiophene-2-carboxylic acid], the IC50 was under 5 µM. Work on `CC1CCC(C(=O)N(c2cc(C3=CCCCC3)sc2C(=O)O)C2CCC(C)(C#N)CC2)CC1` (stereo not drawn) [Compound 99, 3-[(cis-4-cyano-4-methyl-cyclohexyl)-(trans-4-methyl-cyclohexanecarbonyl)-amino]-5-cyclohex-1-enyl-thiophene-2-carboxylic acid] yielded an IC50 of under 5 µM. In the case of `CS(=O)(=O)N1CCC(N(c2cc(C3=CCCCC3)sc2C(=O)O)C(=O)[C@H]2CC[C@H](C)CC2)CC1` [Compound 101, 5-cyclohex-1-enyl-3-[(1-methanesulfonyl-piperidin-4-yl)-(trans-4-methyl-cyclohexanecarbonyl)-amino]-thiophene-2-carboxylic acid], the IC50 is reported as under 5 µM. Work on `C[C@H]1CC[C@H](C(=O)N(c2cc(C3=CCCCC3)sc2C(=O)O)C2CCN(C#N)CC2)CC1` [Compound 102, 3-[(1-cyano-piperidin-4-yl)-(trans-4-methyl-cyclohexanecarbonyl)-amino]-5-cyclohex-1-enyl-thiophene-2-carboxylic acid] yielded an IC50 of under 5 µM. `CC1CCC(C(=O)N(c2cc(C3=CCCCC3)sc2C(=O)O)C2CCN(c3ncccn3)CC2)CC1` (stereo not drawn) [Compound 103, 5-cyclohex-1-enyl-3-[(trans, 4-methyl-cyclohexanecarbonyl)-(1-pyrimidin-2-yl-piperidin-4-yl)-amino]-thiophene-2-carboxylic acid] showed an IC50 of under 5 µM. Compound `CC1CCC(C(=O)N(c2cc(C3=CCCCC3)sc2C(=O)O)C2CCC(n3ccnn3)CC2)CC1` (stereo not drawn) [Compound 104, 5-cyclohex-1-enyl-3-[(trans-4-methyl-cyclohexanecarbonyl)-(cos-4-[1,2,3]triazol-1-yl-cyclohexyl)-amino]-thiophene-2-carboxylic acid] has an IC50 of under 5 µM. Work on `COCC(COC)N(c1cc(C2=CCCCC2)sc1C(=O)O)C(=O)[C@H]1CC[C@H](C)CC1` [Compound 111, 5-cyclohex-1-enyl-3-[(2-methoxy-1-methoxymethyl-ethyl)-(trans-4-methyl-cyclohexanecarbonyl)-amino]-thiophene-2-carboxylic acid] yielded an IC50 of under 5 µM. For `COC1CCC(N(C(=O)C2CCC(C)CC2)c2cc(C3CCCCC3)sc2C(=O)O)CC1` (stereo not drawn) [Compound 112, 5-cyclohexyl-3-[(4-trans-methoxy-cyclohexyl)-(4-trans-methyl-cyclohexanecarbonyl)-amino]-thiophene-2-carboxylic acid], the IC50 was under 5 µM. With `COC1CCC(N(C(=O)C2CCC(C)CC2)c2cc(C3CCC(=O)CC3)sc2C(=O)O)CC1` (stereo not drawn) [Compound 113, 3-[(4-trans-methoxy-cyclohexyl)-(4-trans-methyl-cyclohexanecarbonyl)-amino]-5-(4-oxo-cyclohexyl)-thiophene-2-carboxylic acid] the IC50 was under 5 µM. Work on `COCOC1CCC(N(C(=O)C2CCC(C)CC2)c2cc(C3=CCC(C)(C)CC3)sc2C(=O)O)CC1` (stereo not drawn) [Compound 114, 5-(4,4-dimethyl-cyclohex-1-enyl)-3-[(4-trans-methoxymethoxy-cyclohexyl)-(4-trans-methyl-cyclohexanecarbonyl)-amino]-thiophene-2-carboxylic acid] yielded an IC50 of under 5 µM. Compound `CC1CCC(C(=O)N(c2cc(C3=CCCCC3)sc2C(=O)O)C2CC=CCC2)CC1` (stereo not drawn) [Compound 115, RS-5-cyclohex-1-enyl-3-[cyclohex-3-enyl-(4-trans-methyl-cyclohexanecarbonyl)-amino]-thiophene-2-carboxylic acid] has an IC50 of under 5 µM. `COCOC1CCC(N(C(=O)C2CCC(C)CC2)c2cc(C3CCC(C)(C)CC3)sc2C(=O)O)CC1` (stereo not drawn) [Compound 116, 5-(4,4-dimethyl-cyclohexyl)-3-[(4-trans-methoxymethoxy-cyclohexyl)-(4-trans-methyl-cyclohexanecarbonyl)-amino]-thiophene-2-carboxylic acid] gave an IC50 of under 5 µM. With `CC1(C)CCC(c2cc(N(C(=O)[C@H]3CC[C@H](C)CC3)[C@H]3CC[C@@H](n4cncn4)CC3)c(C(=O)O)s2)CC1` [Compound 117, 5-(4,4-dimethyl-cyclohexyl)-3-[(trans-4-methyl-cyclohexanecarbonyl)-(cis-4-[1,2,4]triazol-1-yl-cyclohexyl)-amino]-thiophene-2-carboxylic acid; hydrochloride] the IC50 was under 5 µM. `CC1CCC(C(=O)N(c2cc(C3CCC(C)(C)CC3)sc2C(=O)O)C2CCC(n3cncn3)CC2)CC1` (stereo not drawn) [Compound 118, 5-(4,4-dimethyl-cyclohexyl)-3-[(trans-4-methyl-cyclohexanecarbonyl)-(trans-4-[1,2,4]triazol-1-cyclohexyl)-amino]-thiophene-2-carboxylic acid; hydrochloride] was tested, and the IC50 was under 5 µM. Work on `COC1CCC(N(C(=O)C2CCC(C)CC2)c2cc(C3CCC(F)(F)CC3)sc2C(=O)O)CC1` (stereo not drawn) [Compound 122, 5-(4,4-difluoro-cyclohexyl)-3-[(4-trans-methoxy-cyclohexyl)-(4-trans-methyl-cyclohexanecarbonyl)-amino]-thiophene-2-carboxylic acid] yielded an IC50 of under 5 µM. With `COC1CCC(N(C(=O)C2CCC(C)CC2)c2cc(C3CC=C(F)CC3)sc2C(=O)O)CC1` (stereo not drawn) [Compound 123, RS-5-(4-fluoro-cyclohex-3-enyl)-3-[(4-trans-methoxy-cyclohexyl)-(4-trans-methyl-cyclohexanecarbonyl)-amino]-thiophene-2-carboxylic acid] the IC50 was under 5 µM. `CCOCO[C@H]1CC[C@H](N(c2cc(C3=CCCCC3)sc2C(=O)O)C(=O)[C@H]2CC[C@H](C)CC2)CC1` [Compound 125, 5-cyclohex-1-enyl-3-[(trans-4-ethoxymethoxy-cyclohexyl)-(trans-4-methyl-cyclohexanecarbonyl)-amino]-thiophene-2-carboxylic acid] showed an IC50 of under 5 µM. `CC1CCC(C(=O)N(c2cc(C3=CCCCC3)sc2C(=O)O)C2CCN(c3ccccc3)CC2)CC1` (centres unmarked) [Compound 127, 5-cyclohex-1-enyl-3-[(trams, 4-methyl-cyclohexanecarbonyl)-(1-phenyl-piperidin-4-yl)-amino]-thiophene-2-carboxylic acid] gave an IC50 of under 5 µM. In the case of `CCN1CC2(CCC(N(C(=O)C3CCC(C)CC3)c3cc(C4=CCCCC4)sc3C(=O)O)CC2)CC1=O` (stereo not drawn) [Compound 129, 5-cyclohex-1-enyl-3-[trans(2-ethyl-33-oxo-2-aza-spiro[4.5]dec-8-yl)-(trans-4-methylcyclohexanecarbonyl)-amino]-thiophene-2-carboxylic acid], the IC50 is reported as under 5 µM.

Same assay, conditions: Huh-7, 5.2 or ET replicon cells, luciferase counts after 4 days incubation; read-out: IC50
With `CC1CCC(C(=O)N(c2cc(C3=CCCCC3)sc2C(=O)O)C2CCC(n3ccnn3)CC2)CC1` (stereo not drawn) [Compound 105, 5-cyclohex-1-enyl-3-[(trans-4-methyl-cyclohexanecarbonyl)-(trans-4-[1,2,3]triazol-1-cyclohexyl)-amino]-thiophene-2-carboxylic acid] the IC50 was under 5 µM. `CC1CCC(C(=O)N(c2cc(C3=CCCCC3)sc2C(=O)O)C2CCC(C)(C#N)CC2)CC1` (stereo not drawn) [Compound 106, 3-[(trans-4-cyano-4-methyl-cyclohexyl)-(trans-4-methylcyclohexanecarbonyl)-amino]-5-cyclohex-1-enyl-thiophene-2-carboxylic acid] was tested, and the IC50 was under 5 µM. Compound `CC1CCC(C(=O)N(c2cc(C3=CCCCC3)sc2C(=O)O)C2CCC3(CC2)CC(=O)N(C)C3)CC1` (stereo not drawn) [Compound 128, 5-cyclohex-1-enyl-3-[(trans-4-methyl-cyclohexanecarbonyl)-trans(2-methyl-3-oxo-2-aza-spiro[4.5]dec-8-yl)-amino]-thiophene-2-carboxylic acid] has an IC50 of under 5 µM. Compound `CCN1CC2(CCC(N(C(=O)C3CCC(C)CC3)c3cc(C4=CCCCC4)sc3C(=O)O)CC2)CC1=O` (stereo not drawn) [Compound 130, 5-cyclohex-1-enyl-3-[cis(2-ethyl-3-oxo-2-aza-spiro[4.5]dec-8-yl)-(trans-4-methylcyclohexanecarbonyl)-amino]-thiophene-2-carboxylic acid] has an IC50 of under 5 µM. `COCC1CCC(N(C(=O)C2CCC(C)CC2)c2cc(C3=CCCCC3)sc2C(=O)O)CC1` (stereo not drawn) [Compound 131, 5-cyclohex-1-enyl-3-[(4-cis-methoxymethyl-cyclohexyl)-(4-trans-methyl-cyclohexanecarbonyl)-amino]-thiophene-2-carboxylic acid] gave an IC50 of under 5 µM.

From patent US8674118B2, “Compounds and methods for the treatment or prevention of flavivirus infections” (priority 2005, dated 2014)
